Measurements published in US20050101595A1, “N-containing cycloalkyl-substituted amino-thiazole derivatives and pharmaceutical compositions for inhibiting cell proliferation and methods for their use” (PFIZER INC., priority 2003, published 2005).
Where a name gives a salt, the structure may show the parent alone. Read-outs that look alike come from different tables or passages of the source. Each block holds one molecule with its values, some of them ahead of it.

Experiments:
[1] = biological target: CDK2/Cyclin A (Homo sapiens, UniProt P24941); experiment: Inhibition of CDK2/Cyclin A Retinoblastoma Kinase Activity; format: biochemical; conditions: for Ki: apparent Ki, CDK2/proteolyzed cyclin A, Rb fragment substrate, 25 μM ATP; for CDK2 % Inhibition At 0.03 μM: Table 2
Summary of the method: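 Baculovirus-expressed CDK2 complexed with proteolyzed cyclin A (10 or 19 nM), Rb fragment substrate, 25 μM [32P/33P]ATP, HEPES pH 7.4, 30 °C for 60 or 75 min under initial-rate conditions. Filter capture and phosphorimager readout; apparent Ki fitted to competitive or tight-binding competitive inhibition.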

[2] = biological target: human CDK4 and genetically truncated (1-264) cyclin D3 (Homo sapiens, UniProt P11802); experiment: Inhibition of CDK4/Cyclin D Retinoblastoma Kinase Activity; format: biochemical; conditions: for Ki: apparent Ki, CDK4/truncated cyclin D3, Rb fragment substrate, 25 μM ATP
Summary of the method: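 Human CDK4/truncated cyclin D3 (1-264) complex from baculovirus-infected insect cells, 5 nM, phosphorylating Rb fragment (residues 386-928, His-tagged) with 25 μM [32/33P]ATP in HEPES pH 7.4, MgCl2, 2% DMSO at 30° C. for 20 min (60 min for tight binders). Filter-captured radioactivity by phosphorimager; apparent Ki from competitive or tight-binding fits.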

[3] = tested on: HCT-116 cell line; experiment: Inhibition of cell growth, tetrazolium salt (MTT) assay; format: cell-based; conditions: for IC50: Homo sapiens, HCT-116, 120 h, MTT, three to five days; for HCT-116 % Inhibition at 0.25 μM: 0.25 μM compound
Summary of the method: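 Growth inhibition by MTT reduction at 540 nm (0.2 mg/mL, 4 h at 37° C, formazan dissolved in DMSO), normalized to cells given only 0.5% v/v DMSO. HCT-116 cultures in McCoy's 5A were dosed 4 h post-plating and kept three to five days at 37° C, 5% CO2.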

[4] = 0.1 μM compound, HCT-116, Table 4
[5] = first HCT-116 column (c4), read-out: HCT-116 IC50
[6] = second HCT-116 column (c5), read-out: HCT-116 IC50
[7] = 0.1 μM compound, HCT-116, Table 3

human CDK4 and genetically truncated (1-264) cyclin D3, sequence (P11802 whole entry, the tested form may be a part): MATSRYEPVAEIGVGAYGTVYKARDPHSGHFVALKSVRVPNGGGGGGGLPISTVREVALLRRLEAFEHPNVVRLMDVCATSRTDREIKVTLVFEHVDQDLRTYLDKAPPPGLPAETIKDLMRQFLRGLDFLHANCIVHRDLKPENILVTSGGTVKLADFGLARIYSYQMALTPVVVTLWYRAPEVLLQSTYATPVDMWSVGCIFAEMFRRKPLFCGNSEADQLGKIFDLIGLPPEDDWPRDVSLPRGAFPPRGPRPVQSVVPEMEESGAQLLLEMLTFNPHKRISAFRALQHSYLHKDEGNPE
human CDK4 and genetically truncated (1-264) cyclin D3, sequence (P30281 1-264 partner): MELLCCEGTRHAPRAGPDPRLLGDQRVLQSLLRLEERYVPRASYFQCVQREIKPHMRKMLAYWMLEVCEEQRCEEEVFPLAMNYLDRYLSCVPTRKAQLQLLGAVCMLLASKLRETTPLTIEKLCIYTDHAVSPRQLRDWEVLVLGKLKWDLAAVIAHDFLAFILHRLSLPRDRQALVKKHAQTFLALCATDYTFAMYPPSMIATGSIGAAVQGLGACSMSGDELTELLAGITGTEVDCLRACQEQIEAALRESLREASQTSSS

SMILES: Nc1nc(NC2CCN(C(=O)Oc3ccc(Cl)cc3)CC2)sc1C(=O)c1c(F)cccc1F [Example C3, 4-[4-Amino-5-(2,6-difluoro-benzoyl)-thiazol-2-ylamino]-piperidine-1-carboxylic Acid 4-Chloro-phenyl Ester]
Ki [1]: 17 nM | Ki [2]: 3.7 nM | IC50 ([3]; read-out: HCT-116 IC50, first HCT-116 column (c4)): 330 nM | IC50 ([3]; read-out: HCT-116 IC50, second HCT-116 column (c5)): 1200 nM

CDK2 % Inhibition at 0.03 μM ([1]; 0.03 μM compound, Table 4): −5% | CDK4 % Inhibition at 0.03 μM ([2]; 0.03 μM compound, Table 4): 7%
SMILES: CC(=O)OC(C(=O)N1CCC(Nc2nc(N)c(C(=O)c3c(F)cccc3F)s2)CC1)c1ccccc1 (stereo not shown) [Example Q40]
HCT-116 % Inhibition at 0.1 μM [3, 4]: 0% | HCT-116 % Inhibition at 0.25 μM ([3]; HCT-116, Table 4): 20%

CDK2 % Inhibition At 0.03 μM ([1]; 0.03 μM compound): 23% | CDK4 % Inhibition at 0.03 μM ([2]; 0.03 μM compound, Table 2): 15%
SMILES: CCOC(=O)CC[C@H](NC(=O)N1CCC(Nc2nc(N)c(C(=O)c3c(F)cccc3F)s2)CC1)C(=O)OCC [Example O80]
HCT-116 % Inhibition at 0.25 μM ([3]; HCT-116, Table 2): 46%

Ki [1]: 2.6 nM | Ki [2]: 1.1 nM | IC50 [3, 5]: 190 nM | IC50 [3, 6]: 1300 nM
SMILES: Nc1nc(NC2CCN(S(=O)(=O)CCCN3CCC4CCCCC4C3)CC2)sc1C(=O)c1c(F)cccc1F (mixture of isomers) [Example K10, 1-(4-Amino-2-{1-[3-([cis/trans]-octahydro-1H-isoquinolin-2-yl)propane-1-sulfonyl]-piperidin-4-ylamino}-thiazol-5-yl)-1-(2,6-difluoro-phenyl)-methanone.]

CDK2 % Inhibition at 0.03 μM ([1]; 0.03 μM compound, Table 4): −20% | CDK4 % Inhibition at 0.03 μM ([2]; 0.03 μM compound, Table 4): 22%
SMILES: Nc1nc(NC2CCN(C(=O)c3c(F)cccc3F)CC2)sc1C(=O)c1c(F)cccc1F [Example Q12]
HCT-116 % Inhibition at 0.1 μM [3, 4]: 3% | HCT-116 % Inhibition at 0.25 μM ([3]; HCT-116, Table 4): 46%

CDK2 % Inhibition at 0.03 μM ([1]; at 0.03 μM): 26% | CDK4 % Inhibition at 0.03 μM ([2]; at 0.03 μM): 53%
SMILES: CC(=Cc1ccccc1)C(=O)N1CCC(Nc2nc(N)c(C(=O)c3c(F)cccc3F)s2)CC1 [Example R161]
HCT-116 % Inhibition at 0.1 μM ([3]; HCT-116 cells, at 0.1 μM): 0% | HCT-116 5 Inhibition at 0.25 μM ([3]; HCT-116 cells, at 0.25 μM): 34

CDK2 % Inhibition at 0.03 μM ([1]; 0.03 μM compound, Table 3): 55% | CDK4 % Inhibition at 0.03 μM ([2]; 0.03 μM compound, Table 3): 62%
SMILES: Nc1nc(NC2CCN(S(=O)(=O)c3ccc(S(=O)(=O)c4ccccc4)s3)CC2)sc1C(=O)c1c(F)cccc1F [Example P42]
HCT-116 % Inhibition at 0.1 μM [3, 7]: 3% | HCT-116 % Inhibition at 0.25 μM ([3]; HCT-116, Table 3): 19%

CDK2 % Inhibition At 0.03 μM ([1]; 0.03 μM compound): 34% | CDK4 % Inhibition at 0.03 μM ([2]; 0.03 μM compound, Table 2): 4%
SMILES: Nc1nc(NC2CCN(C(=O)Nc3ccccc3Oc3ccccc3)CC2)sc1C(=O)c1c(F)cccc1F [Example O82]
HCT-116 % Inhibition at 0.25 μM ([3]; HCT-116, Table 2): 34%

CDK2 % Inhibition At 0.03 μM ([1]; 0.03 μM compound): 28% | CDK4 % Inhibition at 0.03 μM ([2]; 0.03 μM compound, Table 2): −2%
SMILES: Nc1nc(NC2CCN(C(=O)NCCc3ccccc3)CC2)sc1C(=O)c1c(F)cccc1F [Example O57]
HCT-116 % Inhibition at 0.25 μM ([3]; HCT-116, Table 2): 41%

CDK2 % Inhibition at 0.03 μM ([1]; 0.03 μM compound, Table 4): −43% | CDK4 % Inhibition at 0.03 μM ([2]; 0.03 μM compound, Table 4): 11%
SMILES: CCN(CC)C(=O)N1CCC(Nc2nc(N)c(C(=O)c3c(F)cccc3F)s2)CC1 [Example Q3]
HCT-116 % Inhibition at 0.1 μM [3, 4]: 0% | HCT-116 % Inhibition at 0.25 μM ([3]; HCT-116, Table 4): 42%

CDK2 % Inhibition At 0.03 μM ([1]; 0.03 μM compound): 25% | CDK4 % Inhibition at 0.03 μM ([2]; 0.03 μM compound, Table 2): 14%
SMILES: COC(=O)[C@H](Cc1ccccc1)NC(=O)N1CCC(Nc2nc(N)c(C(=O)c3c(F)cccc3F)s2)CC1 [Example O78]
HCT-116 % Inhibition at 0.25 μM ([3]; HCT-116, Table 2): 47%

CDK2 % Inhibition at 0.03 μM ([1]; 0.03 μM compound, Table 4): 21% | CDK4 % Inhibition at 0.03 μM ([2]; 0.03 μM compound, Table 4): 47%
SMILES: Nc1nc(NC2CCN(C(=O)/C=C/c3ccccc3)CC2)sc1C(=O)c1c(F)cccc1F [Example Q45]
HCT-116 % Inhibition at 0.1 μM [3, 4]: 0% | HCT-116 % Inhibition at 0.25 μM ([3]; HCT-116, Table 4): 31%

Ki [1]: 7 nM | Ki [2]: 3.2 nM | IC50 [3, 5]: 310 nM | IC50 [3, 6]: 1300 nM
SMILES: CN(CCS(=O)(=O)N1CCC(Nc2nc(N)c(C(=O)c3c(F)cccc3F)s2)CC1)c1ccccc1 [Example K37, (4-Amino-2-{1-[2-(methyl-phenyl-amino)-ethanesulfonyl]-piperidin-4-ylamino}-thiazol-5-yl)-(2,6-difluoro-phenyl)-methanone Trifluoroacetic Acid Salt.]

CDK2 % Inhibition at 0.03 μM ([1]; 0.03 μM compound, Table 3): 73% | CDK4 % Inhibition at 0.03 μM ([2]; 0.03 μM compound, Table 3): 72%
SMILES: Nc1nc(NC2CCN(S(=O)(=O)c3ccccc3)CC2)sc1C(=O)c1c(F)cccc1F [Example P8]
HCT-116 % Inhibition at 0.1 μM [3, 7]: 37% | HCT-116 % Inhibition at 0.25 μM ([3]; HCT-116, Table 3): 33%
